Reference: US9045524B2, “Selective caspase inhibitors and uses thereof” (NOVAGENESIS FOUNDATION, priority 2009, dated 2015)
pIC50: −log10 of the molar value. Counter-ions that a name gives are not always drawn. Like-named read-outs stand apart in the source and are kept apart here.

Key:
Caspase-5 = Caspase-5 (Homo sapiens (Human), UniProt P51878); assay: Caspase-5 Inhibitor Drug Screening Kit, fluorometric (AFC liberation); assay type: biochemical; settings: 30-minute incubation at 37° C.; approximations of the average values; read-out: Caspase enzymatic activity, IC50 (uM) Caspase 5
Chain of Caspase-5 (P51878 137-434): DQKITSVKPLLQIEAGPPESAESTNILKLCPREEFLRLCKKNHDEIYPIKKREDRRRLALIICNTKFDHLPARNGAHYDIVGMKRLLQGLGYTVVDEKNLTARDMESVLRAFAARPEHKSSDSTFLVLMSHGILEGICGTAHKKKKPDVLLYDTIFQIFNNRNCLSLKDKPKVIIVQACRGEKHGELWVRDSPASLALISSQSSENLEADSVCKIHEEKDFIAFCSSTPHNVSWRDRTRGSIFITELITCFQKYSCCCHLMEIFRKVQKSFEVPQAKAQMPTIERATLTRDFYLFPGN
Protocol: (§1) The level of inhibition of caspase-1, -3, -5, -7, -9 activity was determined by comparison of the relative fluorescence intensity in samples with or without the compound.

[1] = tested on: proteolytic cleavage of PARP (poly ADP-ribose polymerase) in Hela cells; assay: Inhibition of staurosporine-induced PARP cleavage in live Hela cells; assay type: cell-based; settings: for inhibition at 50 µM: Homo sapiens, HeLa; for effectivity in inhibiting PARP cleavage: staurosporine
Protocol: To test the efficacy of caspase-3 inhibitors at the cellular level, the ability of selected compounds to inhibit the proteolytic cleavage of PARP (poly ADP-ribose polymerase) was evaluated in live Hela cells.
Briefly, in this assay Hela cells are seeded in 96 well plates and incubated for 4 hours with staurosporine, a well characterized inducer of apoptosis, alone or together with different concentrations of compound (50, 25, 10 and 3 uM). After formaldehyde-based fixation, the cells are stained with a fluorescein-labeled anti-cleaved PARP antibody (Cell signaling, Cat#: 9547) and counterstained with Hoechst33342 (Invitrogen, Cat#: H3570) to mark all nuclei. Fluorescence images are taken on a Cellomics™ microscope system (Thermo Scientific, Pittsburgh, USA) with the Hoechst stain in the blue channel and the cleaved PARP antibody stain in the green channel. The percentage of cleaved PARP positive cells is determined by calculating the ratio between nuclei with a cleaved PARP antibody staining above a certain threshold and all (Hoechst positive) nuclei. The efficacy of caspase-3 inhibition is determined by calculating the ratio between cleaved PARP positive cells after staurosporine incubation together with compounds and staurosporine incubation without compounds.

Caspase-9 = Caspase-9 (Homo sapiens (Human), UniProt P55211); assay: Caspase-9 Inhibitor Drug Screening Kit, fluorometric (AFC liberation); assay type: biochemical; settings: for IC50: 30-minute incubation at 37° C., approximations of the average values, read-out: Caspase enzymatic activity, IC50 (uM) Caspase 9
Chain of Caspase-9 (P55211 whole entry): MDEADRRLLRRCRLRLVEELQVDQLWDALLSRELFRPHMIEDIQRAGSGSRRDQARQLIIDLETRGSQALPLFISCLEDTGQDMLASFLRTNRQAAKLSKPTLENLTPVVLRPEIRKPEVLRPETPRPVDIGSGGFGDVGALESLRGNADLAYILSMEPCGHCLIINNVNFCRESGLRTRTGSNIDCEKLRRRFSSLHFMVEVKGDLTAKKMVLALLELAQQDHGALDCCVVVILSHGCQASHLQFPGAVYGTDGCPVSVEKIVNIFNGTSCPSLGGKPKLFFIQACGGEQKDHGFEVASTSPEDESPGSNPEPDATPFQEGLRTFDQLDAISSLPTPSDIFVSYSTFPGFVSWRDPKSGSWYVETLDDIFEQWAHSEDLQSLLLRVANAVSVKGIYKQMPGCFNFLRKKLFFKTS
Protocol: as §1

Caspase-1 = Caspase-1 (Homo sapiens (Human), UniProt P29466); assay: Caspase-1 Inhibitor Drug Screening Kit, fluorometric (AFC liberation); assay type: biochemical; settings: for IC50: 30-minute incubation at 37° C., approximations of the average values, read-out: Caspase enzymatic activity, IC50 (uM) Caspase 1
Chain of Caspase-1 (P29466 120-404): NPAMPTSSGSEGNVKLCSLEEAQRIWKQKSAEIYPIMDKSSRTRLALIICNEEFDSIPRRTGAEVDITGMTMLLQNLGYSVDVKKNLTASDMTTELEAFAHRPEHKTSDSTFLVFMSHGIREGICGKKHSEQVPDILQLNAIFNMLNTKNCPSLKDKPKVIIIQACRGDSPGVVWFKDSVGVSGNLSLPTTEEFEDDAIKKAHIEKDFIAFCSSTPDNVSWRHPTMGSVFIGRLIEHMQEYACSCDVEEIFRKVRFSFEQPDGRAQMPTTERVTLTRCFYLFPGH
Protocol: as §1

Caspase-3 = Caspase-3 (Homo sapiens (Human), UniProt P42574); assay: Caspase-3 Inhibitor Drug Screening Kit, fluorometric (AFC liberation); assay type: biochemical; settings: for IC50: 30-minute incubation at 37° C., approximations of the average values, read-out: Caspase enzymatic activity, IC50 (uM) Caspase 3; for pIC50: read-out: IC50 caspase-3
Chain of Caspase-3 (P42574 29-277): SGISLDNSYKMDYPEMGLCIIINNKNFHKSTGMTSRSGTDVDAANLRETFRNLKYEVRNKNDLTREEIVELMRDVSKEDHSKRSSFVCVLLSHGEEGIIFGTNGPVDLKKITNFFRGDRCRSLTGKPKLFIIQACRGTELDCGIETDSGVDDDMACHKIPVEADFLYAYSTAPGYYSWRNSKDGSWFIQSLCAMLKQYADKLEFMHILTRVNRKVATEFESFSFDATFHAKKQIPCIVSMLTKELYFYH
Protocol: as §1

Glo3/7 = Glo3/7 assay; assay type: biochemical
Caspase-7 = Caspase-7 (Homo sapiens (Human), UniProt P55210); assay: Caspase-7 Inhibitor Drug Screening Kit, fluorometric (AFC liberation); assay type: biochemical; settings: for IC50: 30-minute incubation at 37° C., approximations of the average values, read-out: Caspase enzymatic activity, IC50 (uM) Caspase 7; for pIC50: read-out: IC50 caspase-7
Chain of Caspase-7 (P55210 whole entry): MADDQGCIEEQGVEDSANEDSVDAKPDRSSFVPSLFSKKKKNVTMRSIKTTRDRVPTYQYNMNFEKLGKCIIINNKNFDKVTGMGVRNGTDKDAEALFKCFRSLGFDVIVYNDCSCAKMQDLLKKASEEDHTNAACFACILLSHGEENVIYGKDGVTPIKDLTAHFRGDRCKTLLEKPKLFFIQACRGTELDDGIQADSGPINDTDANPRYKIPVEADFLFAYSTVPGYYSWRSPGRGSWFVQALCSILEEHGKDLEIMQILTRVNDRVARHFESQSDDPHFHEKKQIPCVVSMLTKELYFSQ
Protocol: as §1

EAE in C57BL/6 mice = assay: Chronic EAE mouse model (MOG35-55 immunization), daily clinical score and body weight; assay type: in vivo; parameters: key to Delay in onset of the disease / Reduction in severity of the disease / Reduction in body weight loss: +++: high level improvement; ++: moderate improvement; +: small improvement; −: no improvement; settings: for Delay in onset of the disease / Reduction in body weight loss / Reduction in severity of the disease: average overall effects on the EAE model, i.p.
From the text: The aim of this study was to verify the effectiveness of compounds in a chronic mouse animal model of EAE. EAE is a good proof-of-principle model of neurodegeneration since it encompasses degeneration or destruction of practically all the cells in the central nervous system, includes most major immunomodulatory components, and is able to maintain normal innate regenerative functions in the animal. This is a standard model (Antel J P et al., J Neurosci Res. 1997, 50: 345-353) used mainly to mimic the course evolution of Multiple Sclerosis (MS) in humans, and is commonly used for studying disease mechanisms and testing potential therapies. EAE is induced by immunization with myelin proteins, leading to development of myelin-specific T cells. These autoreactive T cells traffic into CNS parenchyma where they initiate an inflammatory cascade through recruitment of other cells such as monocytes and neutrophils. Accumulation of immune cells within CNS leads to myelin damage, axonal loss and clinical deficit in affected animals. EAE can be induced in a variety of species and strains of animals [mice, Rat, marmoset monkey, rhesus macaques] using various CNS antigens [Myelin Oligodendrocyte Glycoprotein (MOG), proteolipid protein (PLP) and myelin basic protein (MBP)]. Seven to 8 week old female C57BL/6 mice were purchased from Charles River Laboratories, and housed at MISPRO™ animal facility for one week before experimentation for adaptation to the new environment. All proper animal experimentation and ethics approvals were obtained prior to the start of any experiments. Mice were immunized subcutaneously with 100 μg of MOG35-55 (Sheldon Biotechnology Centre, McGill University) in CFA containing 5 mg/ml of desiccated (killed and dried) Mycobacterium tuberculosis H37Ra (Difco, Inc), at two sites on the back. The mice were then injected with 200 ng of pertussis toxin (List Biological Laboratories, Inc) in PBS intraperitoneally on days 0 and 2 using 25 gauge needles and scored daily using an EAE clinical scale as detailed below (Touil T et al., J Neurol Sci. 2008, 271:191-202; Antel J P et al., 1997, supra; Owens T et al., Curr Pharm Des. 2005, 1:1031-1037).
EAE was clinically assessed throughout the experiments by daily scoring using a scale from 0 to 5 as follows: partial limp tail, 0.5; full limp tail, 1; limp tail and waddling gait, 1.5; paralysis of one hind limb, 2; paralysis of one hind limb and partial paralysis of other hind limb, 2.5; paralysis of both hind limbs, 3; ascending paralysis, 3.5; paralysis of trunk, 4; moribund, 4.5; death, 5. In all the EAE models a body weight loss is always associated with the clinical signs. This body weight loss is associated with the loss of the function and the paralysis of the muscle (atrophy inducing loss of weight). For animals showing a clinical sign of 2 or more, the food and the water were presented inside the cage to facilitate eating and drinking.
At the onset of clinical signs of EAE, the mice were treated with 200 μl of Compound 51, 53, 57, 59, 101, 104, 105, 111 or 123 dissolved in 2.5% Dimethyl sulfoxide (DMSO) in PBS, while placebo groups were treated with 2.5% Dimethyl sulfoxide (DMSO) in PBS only, by intraperitoneal injection at different time of the clinical evolution.

[2] = 4 h, read-out: % inhibition of PARP cleavage at 50 uM compound, Hela cells, staurosporine 4 hours, 50 uM compound
[3] = FIG. 1, i.p. from day 10 to 16 post immunization, versus placebo
[4] = Hela cells, 50 uM, read-out: % of inhibition with compound relative to DEVDFMK
[5] = FIG. 2, i.p. from day 10 to 16 post immunization, versus placebo

Structure (SMILES) | IC50 (Caspase-5) | inhibition at 50 µM [1, 2] | IC50 (Caspase-9) | IC50 (Caspase-1) | IC50 (Caspase-3) | IC50 (Glo3/7) | IC50 (Caspase-7) | Delay in onset of the disease (EAE in C57BL/6 mice) | Reduction in body weight loss (EAE in C57BL/6 mice) | Reduction in severity of the disease (EAE in C57BL/6 mice) | inhibition at 50 µM [1, 4] | pIC50 (Caspase-3) | also measured
COC(=O)C[C@@H](/C=C/S(C)(=O)=O)NC(=O)[C@@H](NC(=O)[C@@H](NC(=O)[C@H](CC(=O)OC)NC(=O)OCc1ccccc1)C1Cc2ccccc2C1)C(C)C [Compound 51, Z-Asp(β-methyl)-Indanylglycine-Val-Asp(β-methyl)methyl vinyl sulfone] | > 3 µM | > 50% | > 3 µM | > 3 µM | 1 µM | > 50 µM | > 3 µM | ++ | +++ | ++ | – | – | Cumulative clinical score (EAE in C57BL/6 mice; [3]): significantly lower compared to placebo; Disease onset (EAE in C57BL/6 mice; [3]): delayed; Loss of body weight (EAE in C57BL/6 mice; [3]): less than the placebo; clinical severity of the disease (EAE in C57BL/6 mice; [3]): reduced significantly; maximal clinical score (EAE in C57BL/6 mice; [3]): significantly lower compared to placebo
CC(C)[C@H](NC(=O)[C@H](Cc1ccccn1)NC(=O)[C@H](CC(=O)O)NC(=O)OCc1ccccc1)C(=O)N[C@H](/C=C/S(=O)(=O)c1ccccc1)CC(=O)O [Compound 85] | > 3.33 µM | – | > 3.33 µM | > 3.33 µM | 0.03 µM | 0.3 µM | 1 µM | – | – | – | 45% | – | –
CC(C)[C@H](NC(=O)[C@@H](NC(=O)[C@H](CC(=O)O)NC(=O)OCc1ccccc1)C1Cc2ccccc2C1)C(=O)N[C@H](/C=C/S(C)(=O)=O)CC(=O)O [Compound 57, Z-Asp-Indanylglycine-Val-Aspmethyl vinyl sulfone] | > 3.33 µM | > 50% | > 3.33 µM | 0.9 µM | 0.03 µM | 0.1 µM | 0.2 µM | + | + | + | – | 7.05 to 7.52 | fold less efficiency against caspase-1 than against group III caspases (Caspase-1): about 29 fold; pIC50 (Caspase-7): 6.52 to 6.74; Cumulative clinical score (EAE in C57BL/6 mice; [3]): reduced the cumulative score; Disease onset (EAE in C57BL/6 mice; [3]): without delaying the onset of the disease; Loss of body weight (EAE in C57BL/6 mice; [3]): did not show and difference compared to placebo; clinical severity of the disease (EAE in C57BL/6 mice; [3]): reduced also the clinical severity of the disease; maximal clinical score (EAE in C57BL/6 mice; [3]): without any significant effect on the maximal score
COC(=O)C[C@@H](/C=C/S(C)(=O)=O)NC(=O)[C@@H](NC(=O)[C@@H](NC(=O)[C@H](CC(=O)OC)NC(=O)OCc1ccccc1)c1ccccc1)C(C)C [Compound 101, Z-Asp(β-methyl)-phenylglycine-Val-Asp(β-methyl)methyl vinyl sulfone] | > 3.33 µM | 40% | > 3.33 µM | > 3.33 µM | > 3.33 µM | 20 µM | > 3.33 µM | + | ++ | + | 45% | – | Disease onset (EAE in C57BL/6 mice; [5]): delayed; Loss of body weight (EAE in C57BL/6 mice; [5]): less than placebo; severity of the disease (EAE in C57BL/6 mice; [5]): reduced significantly at the early stage of the disease; Loss of body weight (EAE in C57BL/6 mice; FIG. 3, i.p. from day 14 to 19 post immunization, versus placebo): less than in the placebo group
CC(C)(C)OC(=O)C[C@H](N)/C=C/S(C)(=O)=O.Cc1ccc(S(=O)(=O)O)cc1 [Compound 33, Asp(β-tert-butyl)methyl Vinyl Sulfone Tosyl Salt] | > 3.33 µM | 30% | > 3.33 µM | > 3.33 µM | > 10 µM | > 50 µM | > 3.33 µM | – | – | – | 50% | – | activity against caspase-3 (Caspase-3): devoid of any activity
CC(C)(C)OC(=O)C[C@H](N)/C=C/S(=O)(=O)c1ccccc1 [Compound 37, Asp-vinyl Phenyl Sulfone Salt Form] | > 3.33 µM | 20% | > 3.33 µM | > 3.33 µM | > 2 µM | > 50 µM | > 3.33 µM | – | – | – | 35% | – | –
CC(C)[C@H](NC(=O)[C@H](CCC(=O)O)NC(=O)[C@H](CC(=O)O)NC(=O)OCc1ccccc1)C(=O)N[C@H](/C=C/S(C)(=O)=O)CC(=O)O [Compound 59, Z-Asp-Glu-Val-Aspmethyl vinyl sulfone] | > 3.33 µM | – | 0.5 µM | 1.4 µM | 0.02 µM | 0.09 µM | 0.04 µM | ++ | ++ | ++ | – | 7.70 | effectivity in inhibiting PARP cleavage ([1]; Hela cells): showing effectivity especially relative to DEVD-fmk; pIC50 (Caspase-9; read-out: IC50 caspase-9): 6.29; pIC50 (Caspase-7): 7.38
CC(C)[C@H](NC(=O)[C@H](Cc1ccc2ccccc2n1)NC(=O)[C@H](CC(=O)O)NC(=O)OCc1ccccc1)C(=O)N[C@H](/C=C(\Cl)S(C)(=O)=O)CC(=O)O [Compound 48, Z-Asp-Ala(2′-quinolyl)-Val-Asp-achlorovinyl methylsulfone] | > 3.33 µM | – | 1.2 µM | > 3.33 µM | 0.01 µM | 0.1 µM | 0.4 µM | – | – | – | – | 7.52 to 8.10 | effectivity in inhibiting PARP cleavage ([1]; Hela cells): showing effectivity especially relative to DEVD-fmk
